According to patent US20150253306A1 (priority 2012, published 2015):

Test system: intact platelets
Assay: mitochondrial respiration of intact platelets (titration protocol)
Type: cell-based, human
Protocol: Data was recorded with DatLab software 4.3.
Integrated respiration of intact cells with endogenous mitochondrial substrates was evaluated with two different titration protocols. Platelets were suspended in either PBS-glucose or the control subject's own plasma. […] To evaluate the contribution of respiration independent of ADP phosphorylation, oligomycin (1 μg/ml, ATP-synthase inhibitor) was sequentially added inducing LEAK respiration state (also known as oligomycin-induced state 4 respiration). […] Rotenone (2 μM, complex I [CI] inhibitor) and antimycin-A (1 μg/ml, complex III [CIII] inhibitor) were then sequentially added to inhibit the ETS providing the residual oxygen consumption which was subtracted from the different respiratory parameters in further analyses.
In order to evaluate the influence on maximal respiratory capacity by the inhibition of ATP-synthase, a second experimental protocol was performed, where ETS capacity was evaluated by direct titration of FCCP after stabilization of routine respiration, followed by the same inhibitors as above. Control ratios were derived from maximal, FCCP-stimulated, respiration divided by LEAK respiration (ETS/LEAK) and routine respiration (ETS/routine).

Molecule	inhibition at 2 µM (Homo sapiens, Platelet, read-out: inhibition of respiration) [%]	further inhibition of respiration after rotenone (intact platelets, antimycin-A 1 μg/ml added after rotenone 2 μM)
C=C(C)[C@H]1Cc2c(ccc3c2O[C@@H]2COc4cc(OC)c(OC)cc4[C@@H]2C3=O)O1 [rotenone]	~99	–
antimycin-A	–	no further inhibition
